Laboratory results: the NIST ThermoML archive (doi:10.1016/j.jct.2007.05.008)

Assay: mn = molality of the nth substance listed, in mol/kg
Details: 350 kPa, Liquid; for apparent molar heat capacity: Extra sensitive DSC

[I-].[K+] [potassium iodide] + O
Details | apparent molar heat capacity [J/K/mol] | mass density [kg/m3]
278.15 K, m1 = 0.0151 | – | 1001.67
278.15 K, m1 = 0.0299 | – | 1003.68
278.15 K, m1 = 0.0701 | – | 1008.43
278.15 K, m1 = 0.2001 | – | 1024.58
278.15 K, m1 = 0.5376 | – | 1064.35
278.15 K, m1 = 0.6957 | – | 1081.95
278.15 K, m1 = 1.001 | – | 1117.05
278.15 K, m1 = 2.5 | – | 1271.29
278.15 K, m1 = 4.636 | – | 1453.94
278.15 K, m1 = 5.479 | – | 1515.42
278.15 K, m1 = 7.501 | – | 1648.17
283.15 K, m1 = 0.0151 | – | 1001.47
283.15 K, m1 = 0.0299 | – | 1003.4
283.15 K, m1 = 0.0701 | – | 1008.17
283.15 K, m1 = 0.2001 | – | 1024.09
283.15 K, m1 = 0.5376 | – | 1063.61
283.15 K, m1 = 0.6957 | – | 1081.08
283.15 K, m1 = 1.001 | – | 1115.82
283.15 K, m1 = 2.5 | – | 1268.99
283.15 K, m1 = 4.636 | – | 1450.65
283.15 K, m1 = 5.479 | – | 1512.83
283.15 K, m1 = 7.501 | – | 1645.23
288.15 K, m1 = 0.0151 | – | 1000.88
288.15 K, m1 = 0.0299 | – | 1002.77
288.15 K, m1 = 0.0701 | – | 1007.55
288.15 K, m1 = 0.2001 | – | 1023.33
288.15 K, m1 = 0.5376 | – | 1062.62
288.15 K, m1 = 0.6957 | – | 1080.04
288.15 K, m1 = 1.001 | – | 1114.31
288.15 K, m1 = 2.5 | – | 1266.38
288.15 K, m1 = 4.636 | – | 1448.01
288.15 K, m1 = 5.479 | – | 1510.11
288.15 K, m1 = 7.501 | – | 1642.29
298.15 K, m1 = 0.0151 | – | 998.82
298.15 K, m1 = 0.0299 | – | 1000.63
298.15 K, m1 = 0.0701 | – | 1005.39
298.15 K, m1 = 0.2001 | – | 1021
298.15 K, m1 = 0.5376 | – | 1059.83
298.15 K, m1 = 0.6957 | – | 1077.25
298.15 K, m1 = 1.001 | – | 1110.96
298.15 K, m1 = 2.5 | – | 1261.31
298.15 K, m1 = 4.636 | – | 1441.32
298.15 K, m1 = 5.479 | – | 1503.36
298.15 K, m1 = 7.501 | – | 1635.01
303.15 K, m1 = 5.479 | 1.3 | –
308.15 K, m1 = 0.0151 | – | 995.79
308.15 K, m1 = 0.0299 | – | 997.53
308.15 K, m1 = 0.0701 | – | 1002.28
308.15 K, m1 = 0.2001 | – | 1017.73
308.15 K, m1 = 0.5376 | – | 1056.13
308.15 K, m1 = 0.6957 | – | 1073.61
308.15 K, m1 = 1.001 | – | 1106.78
308.15 K, m1 = 2.5 | – | 1255.84
308.15 K, m1 = 4.001 | 0.4 | –
308.15 K, m1 = 4.636 | – | 1434.16
308.15 K, m1 = 5.479 | 1.8 | 1495.89
308.15 K, m1 = 7.501 | – | 1626.88
313.15 K, m1 = 4.001 | 1.4 | –
313.15 K, m1 = 5.479 | 1.7 | –
318.15 K, m1 = 0.0151 | – | 991.94
318.15 K, m1 = 0.0299 | – | 993.68
318.15 K, m1 = 0.0701 | – | 998.38
318.15 K, m1 = 0.2001 | – | 1013.67
318.15 K, m1 = 0.5376 | – | 1051.77
318.15 K, m1 = 0.6957 | – | 1069.13
318.15 K, m1 = 1.001 | – | 1101.94
318.15 K, m1 = 2.5 | – | 1249.89
318.15 K, m1 = 4.001 | 1.9 | –
318.15 K, m1 = 4.636 | – | 1426.64
318.15 K, m1 = 5.479 | 1.2 | 1488.09
318.15 K, m1 = 7.501 | – | 1618.36
323.15 K, m1 = 4.001 | 2 | –
323.15 K, m1 = 5.479 | 0.4 | –
328.15 K, m1 = 0.0151 | – | 987.43
328.15 K, m1 = 0.0299 | – | 989.17
328.15 K, m1 = 0.0701 | – | 993.85
328.15 K, m1 = 0.2001 | – | 1008.93
328.15 K, m1 = 0.5376 | – | 1046.78
328.15 K, m1 = 0.6957 | – | 1064
328.15 K, m1 = 1.001 | – | 1096.55
328.15 K, m1 = 2.5 | – | 1243.46
328.15 K, m1 = 4.001 | 1.7 | –
328.15 K, m1 = 4.636 | – | 1418.83
328.15 K, m1 = 5.479 | – | 1479.85
328.15 K, m1 = 7.501 | – | 1609.25
333.15 K, m1 = 4.001 | 1.3 | –
338.15 K, m1 = 0.0151 | – | 982.32
338.15 K, m1 = 0.0299 | – | 984.03
338.15 K, m1 = 0.0701 | – | 988.65
338.15 K, m1 = 0.2001 | – | 1003.58
338.15 K, m1 = 0.5376 | – | 1041.14
338.15 K, m1 = 0.6957 | – | 1058.16
338.15 K, m1 = 1.001 | – | 1090.66
338.15 K, m1 = 2.5 | – | 1236.58
338.15 K, m1 = 4.001 | 0.6 | –
338.15 K, m1 = 4.636 | – | 1410.65
338.15 K, m1 = 5.479 | – | 1471.57
338.15 K, m1 = 7.501 | – | 1600.65
348.15 K, m1 = 0.0151 | – | 976.56
348.15 K, m1 = 0.0299 | – | 978.32
348.15 K, m1 = 0.0701 | – | 982.92
348.15 K, m1 = 0.2001 | – | 997.75
348.15 K, m1 = 0.5376 | – | 1035.02
348.15 K, m1 = 0.6957 | – | 1051.97
348.15 K, m1 = 1.001 | – | 1084.3
348.15 K, m1 = 2.5 | – | 1229.37
348.15 K, m1 = 4.636 | – | 1402.31
348.15 K, m1 = 5.479 | – | 1463.16
348.15 K, m1 = 7.501 | – | 1591.74
358.15 K, m1 = 0.0151 | – | 970.33
358.15 K, m1 = 0.0299 | – | 972.11
358.15 K, m1 = 0.0701 | – | 976.68
358.15 K, m1 = 0.2001 | – | 991.55
358.15 K, m1 = 0.5376 | – | 1028.65
358.15 K, m1 = 0.6957 | – | 1045.42
358.15 K, m1 = 1.001 | – | 1077.52
358.15 K, m1 = 2.5 | – | 1221.83
358.15 K, m1 = 4.636 | – | 1393.66
358.15 K, m1 = 5.479 | – | 1455.05
358.15 K, m1 = 7.501 | – | 1583.19
368.15 K, m1 = 0.0151 | – | 963.58
368.15 K, m1 = 0.0299 | – | 965.34
368.15 K, m1 = 0.0701 | – | 969.93
368.15 K, m1 = 0.2001 | – | 984.74
368.15 K, m1 = 0.5376 | – | 1021.81
368.15 K, m1 = 0.6957 | – | 1038.47
368.15 K, m1 = 1.001 | – | 1070.31
368.15 K, m1 = 2.5 | – | 1213.99
368.15 K, m1 = 4.636 | – | 1384.78
368.15 K, m1 = 5.479 | – | 1446.45
368.15 K, m1 = 7.501 | – | 1574.23
